Experimental data as given in patent US5444042A, “Method of treatment of neurodegeneration with calpain inhibitors” (Cortex Pharmaceuticals, priority 1994, dated 1995).

How the values were obtained:
Type in all cases: biochemical
Cathepsin B = Cathepsin B (Bos taurus, UniProt P07688); assay: Cathepsin B inhibition, Z-Arg-Arg-AFC (Table PKC1); conditions: pH 6.0 phosphate buffer, substrate Z-Arg-Arg-AFC; read-out: Ki CB (Cathepsin B)
Method: (§1) Various concentrations of inhibitors in dimethylsulfoxide (DMSO) were added to the assay mixture, which contained buffer and substrate. The reaction was started by the addition of the enzyme and the hydrolysis rates were followed spectrophotometrically or fluorimetrically. 88 mM KH2 PO4, 12 mM Na2 HPO4, 1.33 mM EDTA, 2.7 mM cysteine, pH 6.0 was used as a buffer for cathepsin B; and 20 mM Hepes, 10 mM CaCl2, 10 mM β-mercaptoethanol, pH 7.2 buffer was utilized for calpain I and calpain II.
(§2) All peptide thioester hydrolysis rates were measured with assay mixtures containing 4,4'-dithiodipyridine [e324=19800 M-1 cm-1; Grasetti & Murray, Arch. Biochem. Biophys. 119, pp 41-49 (1967)]. Papain was assayed with Bz-Arg-AMC or Bz-Arg-NA [Kanaoka et al., Chem. Pharm. Bull. 25, 3126-3128 (1977)], and the AMC (7-amino-4-methylcoumarin) release was followed fluorimetrically (excitation at 380 nm, and emission at 460 nm). Cathepsin B was assayed with Z-Arg-Arg-AFC [Barrett and Kirschke, Methods Enzymol. 80, 535-561 (1981)], and the AFC (7-amino-4-trifluoromethylcoumarin) release was followed fluorimetrically (excitation at 400 nm, and emission at 505 nm). Calpain I from human erythrocytes and calpain II from rabbit were assayed using Suc-Leu-Tyr-AMC [Sasaki et al., J. Biol. Chem. 259, 12489-12494 (1984), hereby incorporated by reference], and the AMC (7-amino-4-methylcoumarin) release was followed fluorimetrically (excitation at 380 nm, and emission at 460 nm). Enzymatic hydrolysis rates were measured at various substrate and inhibitor concentrations, and Ki values were determined by Dixon plot.

Papain [1] = biological target: T1, Papain (Carica papaya, UniProt P00784); assay: Papain inhibition, Ki by Dixon plot (Table PKC1); conditions: 0.05M Tris-HCl pH 7.5, 2 mM EDTA, 5 mM cysteine, 1% DMSO, 25° C., substrate Nα-Benzoyl-Arg-AMC; read-out: Ki P (Papain)
T1 sequence (P00784 134-345): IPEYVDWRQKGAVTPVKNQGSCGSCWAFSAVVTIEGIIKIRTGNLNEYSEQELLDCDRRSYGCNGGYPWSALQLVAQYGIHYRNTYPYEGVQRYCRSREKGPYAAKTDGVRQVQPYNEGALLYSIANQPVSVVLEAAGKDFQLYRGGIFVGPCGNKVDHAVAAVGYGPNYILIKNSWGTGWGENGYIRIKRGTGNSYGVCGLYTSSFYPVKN
Method: as §1, §2
The inhibition constants for papain shown in Table PKC1 were measured in 0.05M Tris-HCl, pH 7.5 buffer, containing 2 mM EDTA, 5 mM cysteine (freshly prepared), 1% DMSO, at 25° C., using N^α -Benzoyl-Arg-AMC as a substrate, except that those values of inhibition constants for papain marked with an "e" in Table PKC1 were measured in 50 mM Tris-HCl, pH 7.5 buffer, containing 20 mM EDTA, 5 mM cysteine, 9% DMSO, at 25° C., using N^α -Benzoyl-Arg-NA as a substrate.

Chym = Chym (Bos taurus, UniProt P00766); assay: Chym KI (Table 1B(ii))
Description: (§3) We tested the ability of an additional group of Peptide Keto-Compounds to inhibit several proteases in order to evaluate their specificity for Calpain.

Papain [2] = biological target: T1, Papain; assay: Papain KI (Table 1B(ii))
Description: as §3

Calpain II [3] = assay: Calpain II KI (Table 1B(ii))
Description: as §3

PP Elastase = PP Elastase (Sus scrofa, UniProt P00772); assay: PP Elastase KI (Table 1B(ii))
Chain of PP Elastase (P00772 27-266): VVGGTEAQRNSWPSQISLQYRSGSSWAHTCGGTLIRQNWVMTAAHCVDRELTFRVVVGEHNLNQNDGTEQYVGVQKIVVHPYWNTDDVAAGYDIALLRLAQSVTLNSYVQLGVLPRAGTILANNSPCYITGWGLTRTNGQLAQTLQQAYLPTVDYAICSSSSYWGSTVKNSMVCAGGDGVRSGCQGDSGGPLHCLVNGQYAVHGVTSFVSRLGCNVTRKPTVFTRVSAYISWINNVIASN
Description: as §3

Calpain II [4] = biological target: T2, Calpain II (Homo sapiens, UniProt P17655); assay: Calpain II 14C-methylated casein proteolysis (Table 1A)
T2 construct: from tissue; purified by a cited method
T2 sequence (P17655 1-700): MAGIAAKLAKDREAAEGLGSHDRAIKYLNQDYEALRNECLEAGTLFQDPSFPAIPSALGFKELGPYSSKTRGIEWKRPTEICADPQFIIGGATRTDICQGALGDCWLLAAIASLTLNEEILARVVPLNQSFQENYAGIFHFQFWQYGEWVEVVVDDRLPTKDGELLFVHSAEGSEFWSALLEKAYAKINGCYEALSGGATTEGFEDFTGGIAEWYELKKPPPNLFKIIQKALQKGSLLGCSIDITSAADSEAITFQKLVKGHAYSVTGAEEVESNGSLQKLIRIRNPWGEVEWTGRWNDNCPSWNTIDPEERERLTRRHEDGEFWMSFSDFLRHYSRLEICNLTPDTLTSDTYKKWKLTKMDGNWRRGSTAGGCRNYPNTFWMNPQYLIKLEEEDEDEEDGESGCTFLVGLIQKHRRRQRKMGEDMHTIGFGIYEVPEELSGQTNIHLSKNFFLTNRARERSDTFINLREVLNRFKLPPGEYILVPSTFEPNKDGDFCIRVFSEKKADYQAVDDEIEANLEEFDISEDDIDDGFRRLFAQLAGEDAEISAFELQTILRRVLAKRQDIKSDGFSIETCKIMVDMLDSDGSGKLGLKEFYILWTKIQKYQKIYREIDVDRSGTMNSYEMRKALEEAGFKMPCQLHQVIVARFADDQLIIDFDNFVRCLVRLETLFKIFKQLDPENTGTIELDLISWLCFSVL
T2 sequence (P04632 1-268 partner): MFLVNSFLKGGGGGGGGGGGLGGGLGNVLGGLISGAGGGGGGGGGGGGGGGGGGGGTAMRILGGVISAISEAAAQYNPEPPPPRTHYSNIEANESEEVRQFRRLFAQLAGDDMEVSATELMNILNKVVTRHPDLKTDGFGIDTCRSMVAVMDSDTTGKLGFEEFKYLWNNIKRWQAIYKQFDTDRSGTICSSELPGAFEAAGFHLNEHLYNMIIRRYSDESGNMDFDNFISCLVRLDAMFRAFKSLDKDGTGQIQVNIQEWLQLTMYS
Method: The isocoumarins are irreversible inhibitors of Calpain. We obtained IC50 values for a variety of these Calpain Inhibitors as a kinetic analysis of these compounds.
Calpains I and II were purified by the method of (Yoshimura, et al. 1983). (Kitahara 1984) provides an alternative purification scheme. Calpain II may alternatively be purchased from Sigma Chemical Co. as "Calcium Activated Neutral Protease." In this assay, purified Calpain was incubated with ^14 C-methylated casein in the presence of various Heterocyclic Compounds and the amount of acid-soluble radioactivity released by the action of Calpain was measured.

SMILES	Ki (Cathepsin B)	Ki (Papain [1])	Ki (Chym)	Ki (Papain [2])	Ki (Calpain II [3])	Ki (PP Elastase)	IC50 (Calpain II [4])
CCC(NC(=O)[C@@H]1CCCN1C(=O)[C@H](C)NC(=O)[C@H](C)NC(=O)CCC(=O)OC)C(=O)C(=O)OC (mixture of isomers) [MeO-Suc-Ala-Ala-Pro-Abu-COOMe, MeO-Suc-Ala-Ala-Pro-DL-Abu-CO2 Me]	6 µM	0.7 µM	–	–	–	–	–
CCOC(=O)C(=O)C(CC)NC(=O)[C@H](C)NC(=O)[C@H](C)NC(=O)OCc1ccccc1 (mixture of isomers) [Z-Ala-Ala-DL-Abu-COOEt, Z-Ala-Ala-DL-Abu-CO2 Et]	10 µM	0.9 µM	–	–	–	–	–
CCOC(=O)C(=O)[C@H](CC)NC(=O)[C@H](CC(C)C)NC(=O)OCc1ccccc1 (racemic) [Z-Leu-Abu-COOEt, Z-Leu-DL-Abu-COOEt]	–	–	> 100 µM	220 µM	0.4 µM	> 100 µM	–
CCCC(NC(=O)[C@H](CC(C)C)NC(=O)OCc1ccccc1)C(=O)C(=O)OCC (mixture of isomers) [Z-Leu-Nva-COOEt, Z-Leu-DL-Nva-COOEt]	30 µM	–	160 µM	150 µM	1.2 µM	2.3 µM	–
N=C(N)SCCCOc1oc(=O)c2ccccc2c1Cl [CiTprOIC, 4-chloro-3-(3-isothiureidopropoxy)isocoumarin]	–	–	–	–	–	–	70 µM
N=C(N)SCCCOc1oc(=O)c2cc(N)ccc2c1Cl [NH2 -CiTPrOIC (ACITIC), 7-amino-4-chloro-3-(3-isothiureidopropoxy)isocoumarin]	–	–	–	–	–	–	120 µM
CCCCC(NC(=O)C(CC(C)C)NC(=O)OCc1ccccc1)C(=O)C(=O)OCC (stereo not drawn) [Z-Leu-Nle-COOEt, Z-Leu-NLeu-CO2 Et]	–	–	–	190 µM	0.18 µM	2.2 µM	–
CCOC(=O)C(=O)C(Cc1ccccc1)NC(=O)C(CC(C)C)NC(=O)OCc1ccccc1 (stereo not drawn) [Z-Leu-Phe-COOEt]	–	–	0.025 µM	75 µM	0.4 µM	> 100 µM	–
